Molecules are shown by their SMILES.

The nature of data set [1]: Pharmacokinetics of CM352 in rats after intravenous administration. In kind it is in vivo. To be noted: rat, 1 mg/kg intravenous. On the procedure:
CM352 solutions were prepared by dissolving the solid in saline. A drug dosage of 1 mg/kg was administered as a single intravenous injection in the femoral vein. Blood was collected into citrated tubes, and plasma was obtained by 2‐step centrifugation: first at 600 g for 10 minutes and then at 18 000 g for 2 minutes. Plasma samples were stored at −80°C until analysis. CM352 was measured in plasma samples using a Xevo‐TQ MS triple quadrupole mass spectrometer with an electrospray ionization source and an Acquity UPLC (Waters, Manchester, UK) as previously reported.20 Briefly, after chromatographic separation, the compound was detected using multiple reaction monitoring. Quantification was achieved by external calibration using matrix‐matched standards prepared by adding the appropriate volume of diluted solutions of the compound (in methanol/water 50:50, v:v) to aliquots of 50 μL blank plasma. Pharmacokinetic parameters were obtained by fitting the blood concentration‐time data to a bicompartmental model with the WinNonlin software (Pharsight, Mountain View, CA).

Data set [2] relates to mouse model of tail bleeding. More on the design: method as in PMID 25686022. As to conditions: CM352 0.01 mg/kg; cited from earlier work.
For data set [3], the system named is rat model of collagenase‐induced ICH. Description: Bederson scale in ICH rat model. In kind it is in vivo. As for the experimental part:
On the other hand, neurological deficit was evaluated with the Bederson scale,24 ranging from 0 (asymptomatic) to 8 (severe deficit), which included the following items: spontaneous movement, spontaneous rotation, spontaneous flexion of the contralateral forelimb, edge detection, turn after tail suspension, reflection of protection. Behavioral studies were performed at baseline (before surgery) and at 24 hours and 14 days after ICH during the darkness cycle. An experienced investigator, blind to treatment and neuroimaging data, analyzed the behavioral tests.

The subject of data set [4] is apoptotic cells in perihematomal area. Description: TUNEL analysis of apoptotic cells in perihematomal area. The format is in vivo, rat. As to conditions: 14 days after ICH, n=3. On the procedure: After the completion of the neuroimaging study, 14 days after ICH, animals were euthanized by an overdose of anesthetic (sevoflurane 8%) and perfused with PBS and 4% formaldehyde. The brain was removed, axially sliced (2 mm thick), fixed in 4% formaldehyde (4 hours), transferred to 20% sucrose in PBS (4°C), included in optimal cutting temperature compound (Sakura Finetek, Torrance, CA), and stored at −80°C. Slices were cut into 8‐μm‐thick slices using a cryostat (Sakura Finetek Europe BV, Leiden, The Netherlands).
Brain slices were dried at 38°C for 3 hours, and the optimal cutting temperature compound was then removed by washing the slices twice in PBS. Antigen retrieval was performed by immersion of slices in a thermal bath of citrate buffer (pH 6.0) for 20 minutes at 99°C. To detect apoptotic cells, a terminal deoxynucleotidyl transferase dUTP nick end labeling assay was performed. […] Slices were mounted (Polysciences, Eppelheim, Germany) and photographed in a Leica DMI 6000 B microscope with Leica Application Suite Advance Fluorescence software, version 1.0.0 (LAS AF; Leica Microsystems, Wetzlar, Germany).
A quantitative analysis of terminal deoxynucleotidyl transferase dUTP nick end labeling was performed using 3 animals from each group. […] Positive nuclei were counted manually.

The subject of data set [5] is thrombin‐antithrombin complex. Kind of data set: Plasma thrombin‐antithrombin complex ELISA after ICH. As to conditions: 1 mg/kg iv after ICH; data not shown. In kind it is in vivo, rat. As for the experimental part:
(§1) Blood samples (0.5 mL) were drawn from the tail vein before surgery, immediately after surgery, and at 1 hour, 3 hours, 24 hours, and 14 days. Citrate or EDTA plasma was obtained by centrifugation, and samples were stored at −80°C. Enzyme‐linked immunosorbent assay was used to measure interleukin‐6 (IL‐6, ref. KRC0061, Life Technologies, Thermo Fisher Scientific, Waltham, MA), cellular fibronectin (ref. MBS007311, MyBioSource, San Diego, CA), and thrombin‐antithrombin complex (Enzygnost TAT, ref. OWMG15, Siemens Healthcare, Erlangen, Germany) in plasma, as biomarkers of inflammation, cellular damage, and hypercoagulability, respectively. The intra‐assay and interassay coefficients of variation for all molecular markers were <10%.
In general terms: ELISA stands for enzyme-linked immunosorbent assay.

The nature of data set [6]: Activated partial thromboplastin time in plasma after ICH. To be noted: n=3. In kind it is in vivo, rat. As for the experimental part:
Prothrombin time (PT) and activated partial thromboplastin time (aPTT) were measured with STA‐Neoplastin R and PTT reagents (STA‐Compact, Stago, Barcelona, Spain). PT results were expressed as percentage of the standard value, and aPTT results were expressed in seconds.

The nature of the next data set: Plasma protein binding. To be noted: rat, read-out: Plasma prot binding (% unbound). The format is in vitro ADME.
Data set [7] relates to tissue‐type plasminogen activator–induced fibrinolysis in human blood. Set-up: method as in PMID 25686022. As to conditions: read-out: effective concentration to delay lysis time by 50%; cited from earlier work.
A further data set relates to cellular fibronectin. Kind of data set: Plasma cellular fibronectin ELISA after ICH. The format is in vivo, rat. As to conditions: 1 mg/kg iv after ICH; data not shown. On the procedure: as §1

`CNC(=O)c1ccc(Oc2ccc(S(=O)(=O)[C@]3(C(=O)NO)CCC4(CCNCC4)C3)cc2)cc1` [CM352, 4‐[4‐[[(3R)‐3‐(Hydroxycarbamoyl)‐8‐azaspiro[4.5]decan‐3‐yl]sulfonyl]phenoxy]‐N‐methylbenzamide]: the Kp in [1] (brain, n=3, read-out: Brain/plasma ratio) was 0.0193. In addition, the half-life (as a rule, the time needed for the level to fall by half in the phase considered) in [1] (plasma, n=3) is 1.09 h. The Cmax in data set [1] (plasma, n=3, read-out: Cmax (maximal plasma concentration)) stood at 7.8 µM. The clearance (commonly the volume of plasma or blood freed of the substance per unit of time) in data set [1] (plasma, n=3, read-out: Norm. Cl (normalized clearance) (converted)) was 7 mL/min/kg. For the same molecule, the Vd in data set [1] (plasma, n=3, read-out: Norm. Vz (normalized volume of distribution)) was found to be 0.66 L/kg. In data set [1], this molecule showed a maximal plasma concentration of 7.8 µmol/L. Further, the “time CM352 remains in blood above 10 nmol/L” value in data set [1] is 8 h. In data set [2], the antihemorrhagic efficiency result is given as “more potent agent”. The “neurological deficit (Bederson scale)” value in data set [3] (1 mg/kg 3 hours after collagenase, 24 hours (P<0.01) and day 14 (P<0.05) vs control) is recorded as “better neurological function recovery”; in [3] (1 mg/kg iv 1 hour after collagenase, 24 hours, P<0.01 vs control), “better neurological functional recovery”; in data set [3] (1 mg/kg iv 1 hour after collagenase, day 14, P<0.01 vs control), “beneficial effect of CM352 also being very noticeable”. Moreover, in data set [4], the “apoptosis (TUNEL‐positive cells) in the perihematomal area versus control” value is on record as “No effects on apoptosis”. In addition, the “thrombin‐antithrombin complex levels versus control” value in data set [5] was “no differences”. In addition, the aPTT in [6] (3 H) stood at 21.7 ± 4.5 s; in data set [6] (5 H), 21.7 ± 4.0 s; in data set [6] (24 H), 21.7 ± 2.5 s; in data set [6] (Basal), 21.0 ± 4.0 s. Further, the fraction unbound in the data set “Plasma protein binding” was determined as 0.4. In addition, the EC50 in data set [7] was 700 pM. For the same molecule, in the data set with cellular fibronectin, the “cellular fibronectin levels versus control” value is “no differences”.

The values are drawn from publication PMC5669199, “CM352 Reduces Brain Damage and Improves Functional Recovery in a Rat Model of Intracerebral Hemorrhage” (Journal of the American Heart Association: Cardiovascular …, 2017).
